# In PubChem BioAssay AID330 (DTP/NCI, 2004):
# Where “and” joins values, the source holds several entries; their conditions need not be identical. Identical values can stand only once. Toxic doses and inconclusive results are not listed.
# Tested on: P388 leukemia ip, CD2F1 mice, survival T/C
# Assay: NCI In Vivo Anticancer Drug Screen. Data for tumor model P388 Leukemia (intraperitoneal) in CD2F1 (CDF1) mice
# Settings: endpoint: median survival time, higher = longer survival
# How it was run: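 Mice carrying the transplanted tumor received test compound or vehicle. Survival was recorded in each group, and the value is the treated-group measurement divided by that of the vehicle-treated control group.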
# [1] = dose: 50.0 mg/kg/injection, schedule: Q01DX005 (ip), vehicle: Klucel (hydroxypropylcellulose) (HPC)
# [2] = dose: 100.0 mg/kg/injection, schedule: Q01DX005 (ip), vehicle: Klucel (hydroxypropylcellulose) (HPC)
# [3] = dose: 200.0 mg/kg/injection, schedule: Q01DX005 (ip), vehicle: Klucel (hydroxypropylcellulose) (HPC)
# [4] = dose: 50.0 mg/kg/injection, schedule: Q01DX009 (ip), vehicle: Klucel (hydroxypropylcellulose) (HPC)
# [5] = dose: 100.0 mg/kg/injection, schedule: Q01DX009 (ip), vehicle: Klucel (hydroxypropylcellulose) (HPC)
# [6] = dose: 200.0 mg/kg/injection, schedule: Q01DX009 (ip), vehicle: Klucel (hydroxypropylcellulose) (HPC)
# [7] = dose: 50.0 mg/kg/injection, schedule: Q01DX009 (ip), vehicle: saline with Tween-80
# [8] = dose: 100.0 mg/kg/injection, schedule: Q01DX009 (ip), vehicle: saline with Tween-80
# [9] = dose: 200.0 mg/kg/injection, schedule: Q01DX009 (ip), vehicle: saline with Tween-80
# [10] = dose: 100.0 mg/kg/injection, schedule: Q01DX001 (ip), vehicle: Klucel (hydroxypropylcellulose) (HPC)
# [11] = dose: 200.0 mg/kg/injection, schedule: Q01DX001 (ip), vehicle: Klucel (hydroxypropylcellulose) (HPC)
# [12] = dose: 50.0 mg/kg/injection, schedule: Q01DX005 (ip), vehicle: saline with Tween-80
# [13] = dose: 100.0 mg/kg/injection, schedule: Q01DX005 (ip), vehicle: saline with Tween-80
# [14] = dose: 200.0 mg/kg/injection, schedule: Q01DX005 (ip), vehicle: saline with Tween-80
# [15] = dose: 100.0 mg/kg/injection, schedule: Q01DX001 (ip), vehicle: saline with Tween-80
# [16] = dose: 200.0 mg/kg/injection, schedule: Q01DX001 (ip), vehicle: saline with Tween-80
# [17] = dose: 100.0 mg/kg/injection, schedule: Q04DX002 (ip), vehicle: saline with Tween-80
# [18] = dose: 200.0 mg/kg/injection, schedule: Q04DX002 (ip), vehicle: saline with Tween-80
# [19] = dose: 400.0 mg/kg/injection, schedule: Q04DX002 (ip), vehicle: saline with Tween-80
# [20] = dose: 60.0 mg/kg/injection, schedule: Q01DX005 (ip), vehicle: saline with Tween-80
# [21] = dose: 120.0 mg/kg/injection, schedule: Q01DX005 (ip), vehicle: saline with Tween-80
# [22] = dose: 240.0 mg/kg/injection, schedule: Q01DX005 (ip), vehicle: saline with Tween-80
smiles,measurement,setting,value
C=CCC(CC)C(=O)Cl (stereo not given),T/C,"dose: 75.0 mg/kg/injection, schedule: Q01DX009 (ip), vehicle: saline with Tween-80",93 % of control
same,T/C,"dose: 150.0 mg/kg/injection, schedule: Q01DX009 (ip), vehicle: saline with Tween-80",92 % of control
same,T/C,"dose: 300.0 mg/kg/injection, schedule: Q01DX009 (ip), vehicle: saline with Tween-80",111 % of control
COc1ccc(CC2(OC(C)=O)N=NC(C)(C)O2)cc1 (stereo not given),T/C,[1],103 % of control
same,T/C,[2],98 % of control
same,T/C,[3],98 % of control
CC(C)N(Cc1ccccc1)C(=O)Nc1ccc(Cc2ccc(NC(=O)N(Cc3ccccc3)C(C)C)cc2)cc1,T/C,[4],90 % of control
same,T/C,[5],96 % of control
same,T/C,[6],93 % of control
O=C(O)C(=O)O.O=C(O)C(=O)O.O=C(O)C(=O)O.[Ru],T/C,"dose: 12.5 mg/kg/injection, schedule: Q04DX003 (ip), vehicle: water",110 % of control and 87 % of control
O=C1c2ccccc2S(=O)(=O)N1Cc1ccccc1CN1C(=O)c2ccccc2S1(=O)=O,T/C,[1],92 % of control
same,T/C,[2],89 % of control
same,T/C,[3],89 % of control
Cc1c2ccncc2c(C)c2c1[nH]c1cc(O)ccc12,T/C,"dose: 3.13 mg/kg/injection, schedule: Q04DX003 (ip), vehicle: distilled water + Tween-80",104 % of control
same,T/C,"dose: 6.25 mg/kg/injection, schedule: Q04DX003 (ip), vehicle: distilled water + Tween-80",108 % of control and 111 % of control
same,T/C,"dose: 12.5 mg/kg/injection, schedule: Q04DX003 (ip), vehicle: distilled water + Tween-80",122 % of control
CCCCNC(=O)NS(=O)(=O)c1ccc(N)cc1,T/C,[7],100 % of control
same,T/C,[8],105 % of control
same,T/C,[9],102 % of control
COC(=O)/C=C\SC(=S)C1CCCC1=N (stereo not given),T/C,[7],98 % of control
same,T/C,[8],94 % of control
same,T/C,[9],91 % of control
C[N+](C)(Cc1ccccc1)c1nnn[n-]1,T/C,"dose: 50.0 mg/kg/injection, schedule: Q01DX001 (ip), vehicle: Klucel (hydroxypropylcellulose) (HPC)",97 % of control
same,T/C,[10],95 % of control
same,T/C,[11],105 % of control
COC(=O)C(C(=O)OC)=S1C=CC=C1,T/C,"dose: 100.0 mg/kg/injection, schedule: Q04DX003 (ip), vehicle: saline",106 % of control
same,T/C,"dose: 200.0 mg/kg/injection, schedule: Q04DX003 (ip), vehicle: saline",100 % of control
same,T/C,"dose: 400.0 mg/kg/injection, schedule: Q04DX003 (ip), vehicle: saline",106 % of control
CCOC(=O)c1c[nH]c2ccc(N(CCO)CCO)cc12,T/C,[12],102 % of control
same,T/C,[13],105 % of control
same,T/C,[14],108 % of control
Nc1ccc2ncccc2c1[N+](=O)[O-],T/C,"dose: 100.0 mg/kg/injection, schedule: Q04DX003 (ip), vehicle: saline with Tween-80",95 % of control
same,T/C,"dose: 200.0 mg/kg/injection, schedule: Q04DX003 (ip), vehicle: saline with Tween-80",94 % of control
Cc1ccc(S(=O)CC#CC#CCS(=O)c2ccc(C)cc2)cc1 (stereo not given),T/C,"dose: 50.0 mg/kg/injection, schedule: Q01DX001 (ip), vehicle: saline with Tween-80",93 % of control
same,T/C,[15],97 % of control
same,T/C,[16],101 % of control
[Co+2].[O-]c1ccccc1/C=N/Nc1ccccn1.[O-]c1ccccc1/C=N/Nc1ccccn1,T/C,[17],91 % of control
same,T/C,[18],90 % of control
same,T/C,[19],95 % of control
C=C1CCC2C(C)(CCC(O)C2(C)C(=O)O)C1CCc1ccoc1 (stereo not given),T/C,"dose: 20.0 mg/kg/injection, schedule: Q01DX005 (ip), vehicle: other",95 % of control
same,T/C,"dose: 40.0 mg/kg/injection, schedule: Q01DX005 (ip), vehicle: other",100 % of control
same,T/C,"dose: 80.0 mg/kg/injection, schedule: Q01DX005 (ip), vehicle: other",103 % of control
same,T/C,"dose: 160.0 mg/kg/injection, schedule: Q01DX005 (ip), vehicle: other",95 % of control
O=C(O)C1Cc2c([nH]c3ccccc23)C(c2cccs2)N1 (stereo not given),T/C,"dose: 60.0 mg/kg/injection, schedule: Q01DX005 (ip), vehicle: Klucel (hydroxypropylcellulose) (HPC)",100 % of control
same,T/C,"dose: 120.0 mg/kg/injection, schedule: Q01DX005 (ip), vehicle: Klucel (hydroxypropylcellulose) (HPC)",96 % of control
same,T/C,"dose: 240.0 mg/kg/injection, schedule: Q01DX005 (ip), vehicle: Klucel (hydroxypropylcellulose) (HPC)",97 % of control
NC(=O)SCCC(=O)Nc1ccccc1,T/C,[1],105 % of control
same,T/C,[2],105 % of control
same,T/C,[3],109 % of control
COC(=O)c1nc(=S)[nH]c(C(=O)OC)c1C(=O)c1cccc(O)c1,T/C,"dose: 60.0 mg/kg/injection, schedule: Q01DX005 (ip), vehicle: suspension in saline",95 % of control
same,T/C,"dose: 120.0 mg/kg/injection, schedule: Q01DX005 (ip), vehicle: suspension in saline",90 % of control
Cc1cc2c(C(C)C)c(O)c(O)cc2c(O)c1-c1c(C)cc2c(C(C)C)c(O)c(O)cc2c1O,T/C,"dose: 12.5 mg/kg/injection, schedule: Q04DX003 (ip), vehicle: saline with Tween-80",95 % of control
same,T/C,"dose: 25.0 mg/kg/injection, schedule: Q04DX003 (ip), vehicle: saline with Tween-80",100 % of control
same,T/C,"dose: 50.0 mg/kg/injection, schedule: Q04DX003 (ip), vehicle: saline with Tween-80",104 % of control
Ic1cc2c(cc1C1CO1)OCO2 (stereo not given),T/C,[10],103 % of control
same,T/C,[11],99 % of control
same,T/C,"dose: 400.0 mg/kg/injection, schedule: Q01DX001 (ip), vehicle: Klucel (hydroxypropylcellulose) (HPC)",96 % of control
Nc1[nH]c(=S)[nH]c(=S)c1N,T/C,[17],102 % of control
same,T/C,[18],98 % of control
same,T/C,[19],94 % of control
COC(=O)c1nnn(-c2ccc(C)c(C)c2)c1C(=O)c1ccccc1,T/C,[20],99 % of control
same,T/C,[21],109 % of control
CCN(CC)c1ccc2nc3c4ccccc4c(=O)cc-3n(-c3ccccc3)c2c1,T/C,[8],99 % of control
same,T/C,[9],101 % of control
same,T/C,"dose: 400.0 mg/kg/injection, schedule: Q01DX009 (ip), vehicle: saline with Tween-80",115 % of control
NNC(=O)Cc1cc(=O)[nH][nH]1,T/C,[5],101 % of control
same,T/C,[6],100 % of control
same,T/C,"dose: 400.0 mg/kg/injection, schedule: Q01DX009 (ip), vehicle: Klucel (hydroxypropylcellulose) (HPC)",108 % of control
CNC1=CC(=O)c2c(c3cc(O)ccc3n2C)C1=O,T/C,"dose: 12.5 mg/kg/injection, schedule: Q01DX009 (ip), vehicle: saline",103 % of control
same,T/C,"dose: 25.0 mg/kg/injection, schedule: Q01DX009 (ip), vehicle: saline",103 % of control
same,T/C,"dose: 50.0 mg/kg/injection, schedule: Q01DX009 (ip), vehicle: saline",103 % of control and 87 % of control
same,T/C,"dose: 200.0 mg/kg/injection, schedule: Q01DX009 (ip), vehicle: saline",104 % of control
CC(C)C(/C=C/c1ccccc1)=N\NS(=O)(=O)c1ccccc1,T/C,[15],105 % of control
same,T/C,[16],98 % of control
same,T/C,"dose: 400.0 mg/kg/injection, schedule: Q01DX001 (ip), vehicle: saline with Tween-80",96 % of control
Cc1cc(C)c2c(c1)sc1nncn12,T/C,[4],118 % of control
same,T/C,[5],94 % of control
same,T/C,[6],92 % of control
CN(C)NP(=O)(NN(C)C)c1ccccc1,T/C,"dose: 60.0 mg/kg/injection, schedule: Q01DX005 (ip), vehicle: saline",100 % of control
same,T/C,"dose: 120.0 mg/kg/injection, schedule: Q01DX005 (ip), vehicle: saline",103 % of control
same,T/C,"dose: 240.0 mg/kg/injection, schedule: Q01DX005 (ip), vehicle: saline",109 % of control
COc1ccc(Cc2cc3c(cc2OCCOC(C)=O)OCO3)cc1,T/C,[12],110 % of control
same,T/C,[13],105 % of control
same,T/C,[14],103 % of control
NC(CCCC(N)C(=O)c1ccccc1)C(=O)c1ccccc1 (stereo not given),T/C,[20],92 % of control
same,T/C,[21],91 % of control
same,T/C,[22],92 % of control
O=C1Nc2ccccc2NC(=O)C(=C(c2ccccc2)c2ccccc2)C1=C(c1ccccc1)c1ccccc1,T/C,[20],90 % of control
same,T/C,[21],89 % of control
same,T/C,[22],89 % of control
